Assay [1] concerns the target T1, Glucagon-like peptide 1 receptor (Homo sapiens, UniProt P43220). In words: Agonist activity at human GLP1 receptor expressed in BHK cells after 3 hrs by CRE firefly luciferase reporter gene assay in absence of human serum albumin. The class given is functional, cell-based. On the technique in general: A reporter such as luciferase makes a cellular process visible.

In assay [2] the target is T1, Glucagon-like peptide 1 receptor. In words: Displacement of [125I]-GLP1 from human GLP1 receptor expressed in BHK cells after 2 hrs in presence of 2% human serum albumin. The class given is cell-based.
The target is the same in assay [3]. In words: Displacement of [125I]-GLP1 from human GLP1 receptor expressed in BHK cells after 2 hrs in absence of human serum albumin. The format is cell-based. (In general: In a radioligand displacement assay an active substance lowers the binding of a labelled ligand.)

Each structure is given as a SMILES string.

By EC50 is commonly meant the concentration needed to bring the measured effect to its halfway point. A higher EC50 goes with a less potent agent. In general, IC50 refers to the midpoint of a concentration-inhibition curve.

T1 sequence (P43220 whole entry): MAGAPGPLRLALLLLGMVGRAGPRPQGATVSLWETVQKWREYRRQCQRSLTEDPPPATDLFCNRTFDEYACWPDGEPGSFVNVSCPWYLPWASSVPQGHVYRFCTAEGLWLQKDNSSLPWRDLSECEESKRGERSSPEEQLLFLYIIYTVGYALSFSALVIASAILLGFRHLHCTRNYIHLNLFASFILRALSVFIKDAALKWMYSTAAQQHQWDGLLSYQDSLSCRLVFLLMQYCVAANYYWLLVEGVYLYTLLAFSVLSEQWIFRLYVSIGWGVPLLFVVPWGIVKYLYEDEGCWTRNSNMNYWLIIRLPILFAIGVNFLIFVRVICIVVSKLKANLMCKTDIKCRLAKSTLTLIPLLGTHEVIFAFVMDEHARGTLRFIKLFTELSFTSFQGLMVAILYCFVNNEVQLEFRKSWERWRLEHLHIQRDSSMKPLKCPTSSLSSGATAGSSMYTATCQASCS

On to `CC[C@H](C)[C@H](NC(=O)[C@H](Cc1ccccc1)NC(=O)[C@H](CCC(=O)O)NC(=O)[C@H](CCCCNC(=O)COCCOCCNC(=O)CC[C@H](NC(=O)CCCNC(=O)CCCCCCCCCCCCCCCCC(=O)O)C(=O)O)NC(=O)[C@H](C)NC(=O)[C@H](C)NC(=O)[C@H](CCC(N)=O)NC(=O)CNC(=O)[C@H](CCC(=O)O)NC(=O)[C@H](CC(C)C)NC(=O)[C@H](Cc1ccc(O)cc1)NC(=O)[C@H](CO)NC(=O)[C@H](CO)NC(=O)[C@@H](NC(=O)[C@H](CC(=O)O)NC(=O)[C@H](CO)NC(=O)[C@@H](NC(=O)[C@H](Cc1ccccc1)NC(=O)[C@@H](NC(=O)CNC(=O)[C@H](CCC(=O)O)NC(=O)C(C)(C)NC(=O)[C@@H](N)Cc1c[nH]cn1)[C@@H](C)O)[C@@H](C)O)C(C)C)C(=O)N[C@@H](C)C(=O)N[C@@H](Cc1c[nH]c2ccccc12)C(=O)N[C@@H](CC(C)C)C(=O)N[C@H](C(=O)N[C@@H](CCCNC(=N)N)C(=O)NCC(=O)N[C@@H](CCCNC(=N)N)C(=O)NCC(=O)O)C(C)C`, for which the EC50 in assay [1] was found to be 0.0107 nM. For the same molecule, the 50% inhibitory concentration (IC50) in assay [2] was determined as 20.7 nM.

Molecule `CCCCCCCCCCCCCCCCCC(=O)N[C@@H](CCC(=O)NCCOCCOCC(=O)NCCOCCOCC(=O)NCCCC[C@H](NC(=O)[C@H](C)NC(=O)[C@H](C)NC(=O)[C@H](CCC(N)=O)NC(=O)CNC(=O)[C@H](CCC(=O)O)NC(=O)[C@H](CC(C)C)NC(=O)[C@H](Cc1ccc(O)cc1)NC(=O)[C@H](CO)NC(=O)[C@H](CO)NC(=O)[C@@H](NC(=O)[C@H](CC(=O)O)NC(=O)[C@H](CO)NC(=O)[C@@H](NC(=O)[C@H](Cc1ccccc1)NC(=O)[C@@H](NC(=O)CNC(=O)[C@H](CCC(=O)O)NC(=O)C(C)(C)NC(=O)[C@@H](N)Cc1c[nH]cn1)[C@@H](C)O)[C@@H](C)O)C(C)C)C(=O)N[C@@H](CCC(=O)O)C(=O)N[C@@H](Cc1ccccc1)C(=O)N[C@H](C(=O)N[C@@H](C)C(=O)N[C@@H](Cc1c[nH]c2ccccc12)C(=O)N[C@@H](CC(C)C)C(=O)N[C@H](C(=O)N[C@@H](CCCNC(=N)N)C(=O)NCC(=O)N[C@@H](CCCNC(=N)N)C(=O)NCC(=O)O)C(C)C)[C@@H](C)CC)C(=O)O` came in with an EC50 in assay [1] of 0.0032 nM. Besides, the IC50 in assay [3] is 0.04 nM; in assay [2], 1.99 nM.

Take `CC[C@H](C)[C@H](NC(=O)[C@H](Cc1ccccc1)NC(=O)[C@H](CCC(=O)O)NC(=O)[C@H](CCCCNC(=O)COCCOCCNC(=O)COCCOCCNC(=O)c1ccc(CN(CCC(=O)O)C(=O)CCCCCCCCCCCCCCCCC(=O)O)cc1)NC(=O)[C@H](C)NC(=O)[C@H](C)NC(=O)[C@H](CCC(N)=O)NC(=O)CNC(=O)[C@H](CCC(=O)O)NC(=O)[C@H](CC(C)C)NC(=O)[C@H](Cc1ccc(O)cc1)NC(=O)[C@H](CO)NC(=O)[C@H](CO)NC(=O)[C@@H](NC(=O)[C@H](CC(=O)O)NC(=O)[C@H](CO)NC(=O)[C@@H](NC(=O)[C@H](Cc1ccccc1)NC(=O)[C@@H](NC(=O)CNC(=O)[C@H](CCC(=O)O)NC(=O)C(C)(C)NC(=O)[C@@H](N)Cc1c[nH]cn1)[C@@H](C)O)[C@@H](C)O)C(C)C)C(=O)N[C@@H](C)C(=O)N[C@@H](Cc1c[nH]c2ccccc12)C(=O)N[C@@H](CC(C)C)C(=O)N[C@H](C(=O)N[C@@H](CCCNC(=N)N)C(=O)NCC(=O)N[C@@H](CCCNC(=N)N)C(=O)NCC(=O)O)C(C)C`: the IC50 is 9.19 nM in assay [3] and 51.7 nM in assay [2].

Regarding `CC[C@H](C)[C@H](NC(=O)[C@H](Cc1ccccc1)NC(=O)[C@H](CCC(=O)O)NC(=O)[C@H](CCCCN)NC(=O)[C@H](C)NC(=O)[C@H](C)NC(=O)[C@H](CCC(N)=O)NC(=O)CNC(=O)[C@H](CCC(=O)O)NC(=O)[C@H](CC(C)C)NC(=O)[C@H](Cc1ccc(O)cc1)NC(=O)[C@H](CO)NC(=O)[C@H](CO)NC(=O)[C@@H](NC(=O)[C@H](CC(=O)O)NC(=O)[C@H](CO)NC(=O)[C@@H](NC(=O)[C@H](Cc1ccccc1)NC(=O)[C@@H](NC(=O)CNC(=O)[C@H](CCC(=O)O)NC(=O)C(C)(C)NC(=O)[C@@H](N)Cc1c[nH]cn1)[C@@H](C)O)[C@@H](C)O)C(C)C)C(=O)N[C@@H](C)C(=O)N[C@@H](Cc1c[nH]c2ccccc12)C(=O)N[C@@H](CC(C)C)C(=O)N[C@H](C(=O)N[C@@H](CCCNC(=N)N)C(=O)NCC(=O)N[C@@H](CCCNC(=N)N)C(=O)NCC(=O)N[C@@H](CCCCNC(=O)COCCOCCNC(=O)COCCOCCNC(=O)CCCCCCCCCCCCCCCCC(=O)O)C(=O)O)C(C)C`, in assay [1], the midpoint of the response, the EC50, lay at 0.0675 nM. Moreover, the IC50 in assay [3] turned out to be 0.27 nM; in assay [2], 6.73 nM.

In assay [1], `CC[C@H](C)[C@H](NC(=O)[C@H](Cc1ccccc1)NC(=O)[C@H](CCC(=O)O)NC(=O)[C@H](CCCCNC(=O)CCCCCCCCCCCCCCCCC(=O)O)NC(=O)[C@H](C)NC(=O)[C@H](C)NC(=O)[C@H](CCC(N)=O)NC(=O)CNC(=O)[C@H](CCC(=O)O)NC(=O)[C@H](CC(C)C)NC(=O)[C@H](Cc1ccc(O)cc1)NC(=O)[C@H](CO)NC(=O)[C@H](CO)NC(=O)[C@@H](NC(=O)[C@H](CC(=O)O)NC(=O)[C@H](CO)NC(=O)[C@@H](NC(=O)[C@H](Cc1ccccc1)NC(=O)[C@@H](NC(=O)CNC(=O)[C@H](CCC(=O)O)NC(=O)C(C)(C)NC(=O)[C@@H](N)Cc1c[nH]cn1)[C@@H](C)O)[C@@H](C)O)C(C)C)C(=O)N[C@@H](C)C(=O)N[C@@H](Cc1c[nH]c2ccccc12)C(=O)N[C@@H](CC(C)C)C(=O)N[C@H](C(=O)N[C@@H](CCCNC(=N)N)C(=O)NCC(=O)N[C@@H](CCCNC(=N)N)C(=O)NCC(=O)O)C(C)C` gave an EC50 of 0.269 nM. For the same molecule, the IC50 in assay [3] turned out to be 1.86 nM; in assay [2], 27 nM.

In assay [1], `CC[C@H](C)[C@H](NC(=O)[C@H](Cc1ccccc1)NC(=O)[C@H](CCC(=O)O)NC(=O)[C@H](CCCCNC(=O)COCCOCCNC(=O)COCCOCCNC(=O)CC[C@H](NC(=O)CCCCCCCCCCCCCCCCCCCCC(=O)O)C(=O)O)NC(=O)[C@H](C)NC(=O)[C@H](C)NC(=O)[C@H](CCC(N)=O)NC(=O)CNC(=O)[C@H](CCC(=O)O)NC(=O)[C@H](CC(C)C)NC(=O)[C@H](Cc1ccc(O)cc1)NC(=O)[C@H](CO)NC(=O)[C@H](CO)NC(=O)[C@@H](NC(=O)[C@H](CC(=O)O)NC(=O)[C@H](CO)NC(=O)[C@@H](NC(=O)[C@H](Cc1ccccc1)NC(=O)[C@@H](NC(=O)CNC(=O)[C@H](CCC(=O)O)NC(=O)C(C)(C)NC(=O)[C@@H](N)Cc1c[nH]cn1)[C@@H](C)O)[C@@H](C)O)C(C)C)C(=O)N[C@@H](C)C(=O)N[C@@H](Cc1c[nH]c2ccccc12)C(=O)N[C@@H](CC(C)C)C(=O)N[C@H](C(=O)N[C@@H](CCCNC(=N)N)C(=O)NCC(=O)N[C@@H](CCCNC(=N)N)C(=O)NCC(=O)O)C(C)C` showed an EC50 of 0.0244 nM. Moreover, the figures for the IC50 in assay [3] and in assay [2] were 0.21 nM and 24.8 nM, respectively.

Regarding `CCCCCCCCCCCCCCCC(=O)N[C@@H](CCC(=O)NCCOCCOCC(=O)NCCOCCOCC(=O)NCCCC[C@H](NC(=O)[C@H](C)NC(=O)[C@H](C)NC(=O)[C@H](CCC(N)=O)NC(=O)CNC(=O)[C@H](CCC(=O)O)NC(=O)[C@H](CC(C)C)NC(=O)[C@H](Cc1ccc(O)cc1)NC(=O)[C@H](CO)NC(=O)[C@H](CO)NC(=O)[C@@H](NC(=O)[C@H](CC(=O)O)NC(=O)[C@H](CO)NC(=O)[C@@H](NC(=O)[C@H](Cc1ccccc1)NC(=O)[C@@H](NC(=O)CNC(=O)[C@H](CCC(=O)O)NC(=O)C(C)(C)NC(=O)[C@@H](N)Cc1c[nH]cn1)[C@@H](C)O)[C@@H](C)O)C(C)C)C(=O)N[C@@H](CCC(=O)O)C(=O)N[C@@H](Cc1ccccc1)C(=O)N[C@H](C(=O)N[C@@H](C)C(=O)N[C@@H](Cc1c[nH]c2ccccc12)C(=O)N[C@@H](CC(C)C)C(=O)N[C@H](C(=O)N[C@@H](CCCNC(=N)N)C(=O)NCC(=O)N[C@@H](CCCNC(=N)N)C(=O)NCC(=O)O)C(C)C)[C@@H](C)CC)C(=O)O`, the IC50 in assay [2] is 3.78 nM.
